Laboratory results reported in ChEMBL document CHEMBL3991601, “The target landscape of clinical kinase drugs” (Science, 2017).
Active and inactive are the calls of the source. Cut-off read from the data, not from the text of the source, for most assays here: actives have a measured Kd and inactives only a lower limit.

How the values were obtained:
[1] = biological target: Cyclin-dependent kinase 2 (Homo sapiens, UniProt P24941)
[2] = biological target: Tyrosine-protein kinase BTK (Homo sapiens, UniProt Q06187)
[3] = biological target: Casein kinase II subunit alpha' (Homo sapiens, UniProt P19784)
[4] = biological target: Mitogen-activated protein kinase 3 (Homo sapiens, UniProt P27361)
[5] = biological target: Cyclin-dependent kinase 5 (Homo sapiens, UniProt Q00535)
[6] = biological target: Epidermal growth factor receptor (Homo sapiens, UniProt P00533)
[7] = biological target: Serine/threonine-protein kinase PAK 4 (Homo sapiens, UniProt O96013)
[8] = biological target: Dual specificity testis-specific protein kinase 1 (Homo sapiens, UniProt Q15569)
[9] = biological target: Mitogen-activated protein kinase kinase kinase kinase 1 (Homo sapiens, UniProt Q92918)
[10] = biological target: Mitogen-activated protein kinase 9 (Homo sapiens, UniProt P45984)
Rab-like protein 3 = biological target: T1, Rab-like protein 3 (Homo sapiens, UniProt Q5HYI8)
T1 sequence (Q5HYI8 whole entry): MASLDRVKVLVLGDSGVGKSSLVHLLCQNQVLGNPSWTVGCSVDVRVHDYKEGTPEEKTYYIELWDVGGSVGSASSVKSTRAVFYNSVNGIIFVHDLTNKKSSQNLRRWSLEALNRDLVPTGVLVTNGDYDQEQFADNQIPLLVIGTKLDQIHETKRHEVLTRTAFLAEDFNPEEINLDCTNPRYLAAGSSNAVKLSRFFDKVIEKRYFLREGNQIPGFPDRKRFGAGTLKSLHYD

[11] = biological target: Bone morphogenetic protein receptor type-1B (Homo sapiens, UniProt O00238)
[12] = biological target: Mitogen-activated protein kinase kinase kinase kinase 5 (Homo sapiens, UniProt Q9Y4K4)
Myosin-14 = Myosin-14 (Homo sapiens, UniProt Q7Z406)
[13] = biological target: Glycogen synthase kinase-3 beta (Homo sapiens, UniProt P49841)
[14] = biological target: TRAF2 and NCK-interacting protein kinase (Homo sapiens, UniProt Q9UKE5)
[15] = biological target: T2, Beta-adrenergic receptor kinase 1 (Homo sapiens, UniProt P25098)
T2 sequence (P25098 whole entry): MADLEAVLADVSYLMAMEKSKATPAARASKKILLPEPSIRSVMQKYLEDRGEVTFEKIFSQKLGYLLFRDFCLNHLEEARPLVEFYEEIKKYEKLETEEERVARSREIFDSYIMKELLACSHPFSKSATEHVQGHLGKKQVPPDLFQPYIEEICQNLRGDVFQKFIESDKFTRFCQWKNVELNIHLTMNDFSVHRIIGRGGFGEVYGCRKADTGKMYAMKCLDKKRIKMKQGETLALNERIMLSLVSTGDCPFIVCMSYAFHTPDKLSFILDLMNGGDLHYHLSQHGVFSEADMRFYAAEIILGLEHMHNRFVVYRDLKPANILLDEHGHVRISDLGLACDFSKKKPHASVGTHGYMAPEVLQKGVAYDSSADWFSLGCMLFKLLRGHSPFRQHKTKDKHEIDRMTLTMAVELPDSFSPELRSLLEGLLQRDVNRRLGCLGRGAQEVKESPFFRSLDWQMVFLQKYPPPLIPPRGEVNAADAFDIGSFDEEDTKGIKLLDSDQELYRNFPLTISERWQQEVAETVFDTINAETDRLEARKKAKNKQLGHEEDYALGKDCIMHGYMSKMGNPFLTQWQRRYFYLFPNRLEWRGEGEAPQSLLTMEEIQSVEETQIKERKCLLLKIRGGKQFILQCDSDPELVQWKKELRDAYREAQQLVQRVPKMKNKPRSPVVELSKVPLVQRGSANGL

[16] = biological target: MAP kinase-activated protein kinase 2 (Homo sapiens, UniProt P49137)
[17] = biological target: T3, Non-receptor tyrosine-protein kinase TNK1 (Homo sapiens, UniProt Q13470)
T3 sequence (Q13470 whole entry): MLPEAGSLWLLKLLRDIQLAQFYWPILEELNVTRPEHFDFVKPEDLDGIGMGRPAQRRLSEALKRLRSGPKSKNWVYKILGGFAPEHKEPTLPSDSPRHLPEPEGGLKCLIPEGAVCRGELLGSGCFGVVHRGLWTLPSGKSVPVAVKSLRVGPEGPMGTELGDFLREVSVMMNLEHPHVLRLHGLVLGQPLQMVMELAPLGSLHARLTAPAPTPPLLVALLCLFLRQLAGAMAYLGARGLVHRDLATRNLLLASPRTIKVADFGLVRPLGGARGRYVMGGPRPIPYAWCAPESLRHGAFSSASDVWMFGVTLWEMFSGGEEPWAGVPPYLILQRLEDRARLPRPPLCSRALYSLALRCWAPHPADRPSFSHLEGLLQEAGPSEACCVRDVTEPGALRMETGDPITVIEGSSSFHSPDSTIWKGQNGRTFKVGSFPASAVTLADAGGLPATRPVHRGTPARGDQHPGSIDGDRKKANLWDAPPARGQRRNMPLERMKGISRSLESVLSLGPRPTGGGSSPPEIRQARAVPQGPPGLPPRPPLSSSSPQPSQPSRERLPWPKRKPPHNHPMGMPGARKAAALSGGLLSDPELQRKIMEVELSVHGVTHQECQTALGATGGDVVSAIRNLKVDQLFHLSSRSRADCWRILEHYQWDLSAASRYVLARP
Note: in the data inactive means no Kd found up to 30 µM.

Bone morphogenetic protein receptor type-1B, sequence (O00238 whole entry): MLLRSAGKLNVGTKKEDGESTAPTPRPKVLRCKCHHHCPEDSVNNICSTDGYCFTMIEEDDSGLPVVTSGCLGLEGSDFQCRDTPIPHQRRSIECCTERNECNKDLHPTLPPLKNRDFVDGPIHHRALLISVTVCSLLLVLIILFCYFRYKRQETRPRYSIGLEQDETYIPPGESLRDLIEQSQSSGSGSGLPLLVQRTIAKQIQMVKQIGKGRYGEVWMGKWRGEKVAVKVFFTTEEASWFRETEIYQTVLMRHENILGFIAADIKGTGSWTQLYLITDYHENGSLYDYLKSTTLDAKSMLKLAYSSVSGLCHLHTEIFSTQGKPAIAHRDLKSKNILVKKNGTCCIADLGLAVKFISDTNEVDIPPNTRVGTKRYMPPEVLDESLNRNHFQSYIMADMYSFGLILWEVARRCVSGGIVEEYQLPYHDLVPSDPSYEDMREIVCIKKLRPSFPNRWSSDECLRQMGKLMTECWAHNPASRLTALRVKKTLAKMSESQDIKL
TRAF2 and NCK-interacting protein kinase, sequence (Q9UKE5 whole entry): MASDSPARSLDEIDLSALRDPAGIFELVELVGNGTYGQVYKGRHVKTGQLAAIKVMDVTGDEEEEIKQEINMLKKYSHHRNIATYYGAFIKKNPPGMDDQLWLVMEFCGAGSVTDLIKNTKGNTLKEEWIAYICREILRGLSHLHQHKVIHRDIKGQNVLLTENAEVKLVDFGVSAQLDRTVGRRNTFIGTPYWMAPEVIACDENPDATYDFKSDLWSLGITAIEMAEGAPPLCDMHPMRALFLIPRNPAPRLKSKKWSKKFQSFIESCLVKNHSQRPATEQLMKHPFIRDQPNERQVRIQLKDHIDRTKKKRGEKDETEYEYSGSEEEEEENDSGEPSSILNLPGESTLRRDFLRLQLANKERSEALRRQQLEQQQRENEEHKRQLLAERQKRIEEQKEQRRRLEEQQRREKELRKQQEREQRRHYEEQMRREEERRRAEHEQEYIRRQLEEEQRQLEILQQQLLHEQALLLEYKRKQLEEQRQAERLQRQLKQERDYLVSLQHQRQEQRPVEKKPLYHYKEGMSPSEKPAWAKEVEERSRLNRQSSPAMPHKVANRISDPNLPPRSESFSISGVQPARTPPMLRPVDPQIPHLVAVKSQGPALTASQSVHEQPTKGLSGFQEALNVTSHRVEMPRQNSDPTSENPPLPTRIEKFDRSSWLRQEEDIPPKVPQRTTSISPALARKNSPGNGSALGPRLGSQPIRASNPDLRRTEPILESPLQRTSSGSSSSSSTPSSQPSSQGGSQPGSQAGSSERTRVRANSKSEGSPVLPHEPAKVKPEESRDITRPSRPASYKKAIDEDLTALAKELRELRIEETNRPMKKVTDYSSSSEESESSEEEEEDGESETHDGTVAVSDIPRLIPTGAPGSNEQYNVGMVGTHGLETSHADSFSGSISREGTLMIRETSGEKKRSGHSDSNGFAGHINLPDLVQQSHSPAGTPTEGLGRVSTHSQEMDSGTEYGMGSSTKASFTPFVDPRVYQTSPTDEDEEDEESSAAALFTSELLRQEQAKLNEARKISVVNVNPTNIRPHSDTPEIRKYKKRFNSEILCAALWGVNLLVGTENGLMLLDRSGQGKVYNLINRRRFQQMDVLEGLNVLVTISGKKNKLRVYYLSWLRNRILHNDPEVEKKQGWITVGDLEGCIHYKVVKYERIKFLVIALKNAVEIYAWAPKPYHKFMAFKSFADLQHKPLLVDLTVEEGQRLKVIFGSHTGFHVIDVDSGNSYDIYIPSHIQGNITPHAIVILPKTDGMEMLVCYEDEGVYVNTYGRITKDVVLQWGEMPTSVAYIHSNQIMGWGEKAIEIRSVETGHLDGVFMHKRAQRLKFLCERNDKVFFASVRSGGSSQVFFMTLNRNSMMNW
Mitogen-activated protein kinase 9, sequence (P45984 whole entry): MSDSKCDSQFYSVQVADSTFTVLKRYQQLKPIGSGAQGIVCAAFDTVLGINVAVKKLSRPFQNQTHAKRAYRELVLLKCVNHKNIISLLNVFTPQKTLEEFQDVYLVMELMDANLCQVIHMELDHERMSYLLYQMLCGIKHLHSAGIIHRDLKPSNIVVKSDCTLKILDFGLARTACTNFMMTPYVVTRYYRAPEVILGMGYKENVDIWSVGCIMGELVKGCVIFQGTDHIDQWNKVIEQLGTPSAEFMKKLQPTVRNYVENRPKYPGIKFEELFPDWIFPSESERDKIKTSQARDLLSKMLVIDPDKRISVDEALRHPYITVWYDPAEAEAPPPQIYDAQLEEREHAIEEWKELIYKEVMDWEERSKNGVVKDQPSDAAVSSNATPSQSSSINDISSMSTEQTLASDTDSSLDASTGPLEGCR
Epidermal growth factor receptor, sequence (P00533 whole entry): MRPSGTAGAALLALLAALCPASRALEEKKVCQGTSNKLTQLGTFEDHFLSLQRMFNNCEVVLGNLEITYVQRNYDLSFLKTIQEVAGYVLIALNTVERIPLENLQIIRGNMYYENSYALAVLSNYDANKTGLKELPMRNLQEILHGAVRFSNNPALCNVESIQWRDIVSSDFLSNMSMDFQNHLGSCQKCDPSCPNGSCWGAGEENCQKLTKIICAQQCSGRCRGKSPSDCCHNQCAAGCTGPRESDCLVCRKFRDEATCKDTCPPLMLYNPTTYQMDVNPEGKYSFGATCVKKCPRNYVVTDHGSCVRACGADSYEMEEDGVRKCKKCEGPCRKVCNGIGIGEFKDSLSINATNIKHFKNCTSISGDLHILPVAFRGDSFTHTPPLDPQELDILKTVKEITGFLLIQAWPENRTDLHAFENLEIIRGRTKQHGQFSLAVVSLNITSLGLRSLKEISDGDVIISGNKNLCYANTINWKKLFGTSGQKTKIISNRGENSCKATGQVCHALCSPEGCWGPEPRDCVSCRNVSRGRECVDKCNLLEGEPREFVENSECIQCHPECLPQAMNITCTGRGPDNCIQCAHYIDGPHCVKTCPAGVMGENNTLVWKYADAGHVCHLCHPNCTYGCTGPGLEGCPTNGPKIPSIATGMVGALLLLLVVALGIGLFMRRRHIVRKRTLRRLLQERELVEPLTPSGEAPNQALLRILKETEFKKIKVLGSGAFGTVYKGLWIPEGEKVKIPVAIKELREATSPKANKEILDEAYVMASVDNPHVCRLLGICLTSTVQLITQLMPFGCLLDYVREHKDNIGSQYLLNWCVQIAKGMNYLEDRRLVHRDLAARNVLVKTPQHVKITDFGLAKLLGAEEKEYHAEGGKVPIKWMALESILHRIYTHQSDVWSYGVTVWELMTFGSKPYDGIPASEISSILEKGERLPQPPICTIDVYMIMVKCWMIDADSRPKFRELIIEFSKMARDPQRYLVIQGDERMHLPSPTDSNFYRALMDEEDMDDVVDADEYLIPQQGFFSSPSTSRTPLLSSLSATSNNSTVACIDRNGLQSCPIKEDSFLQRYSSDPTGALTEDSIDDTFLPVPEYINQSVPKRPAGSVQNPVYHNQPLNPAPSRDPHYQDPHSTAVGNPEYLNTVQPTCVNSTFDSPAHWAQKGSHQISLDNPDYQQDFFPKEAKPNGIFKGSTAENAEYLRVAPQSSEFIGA
Mitogen-activated protein kinase 3, sequence (P27361 whole entry): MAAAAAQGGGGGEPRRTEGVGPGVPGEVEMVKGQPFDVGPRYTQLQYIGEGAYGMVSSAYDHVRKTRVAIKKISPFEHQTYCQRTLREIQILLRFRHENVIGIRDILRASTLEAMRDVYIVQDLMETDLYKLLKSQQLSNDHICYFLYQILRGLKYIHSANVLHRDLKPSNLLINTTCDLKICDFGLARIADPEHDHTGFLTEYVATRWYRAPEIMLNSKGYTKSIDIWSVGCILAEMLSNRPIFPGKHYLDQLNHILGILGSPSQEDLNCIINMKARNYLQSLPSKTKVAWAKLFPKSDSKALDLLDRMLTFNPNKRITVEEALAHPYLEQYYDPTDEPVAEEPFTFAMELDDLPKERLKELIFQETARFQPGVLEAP
Mitogen-activated protein kinase kinase kinase kinase 1, sequence (Q92918 whole entry): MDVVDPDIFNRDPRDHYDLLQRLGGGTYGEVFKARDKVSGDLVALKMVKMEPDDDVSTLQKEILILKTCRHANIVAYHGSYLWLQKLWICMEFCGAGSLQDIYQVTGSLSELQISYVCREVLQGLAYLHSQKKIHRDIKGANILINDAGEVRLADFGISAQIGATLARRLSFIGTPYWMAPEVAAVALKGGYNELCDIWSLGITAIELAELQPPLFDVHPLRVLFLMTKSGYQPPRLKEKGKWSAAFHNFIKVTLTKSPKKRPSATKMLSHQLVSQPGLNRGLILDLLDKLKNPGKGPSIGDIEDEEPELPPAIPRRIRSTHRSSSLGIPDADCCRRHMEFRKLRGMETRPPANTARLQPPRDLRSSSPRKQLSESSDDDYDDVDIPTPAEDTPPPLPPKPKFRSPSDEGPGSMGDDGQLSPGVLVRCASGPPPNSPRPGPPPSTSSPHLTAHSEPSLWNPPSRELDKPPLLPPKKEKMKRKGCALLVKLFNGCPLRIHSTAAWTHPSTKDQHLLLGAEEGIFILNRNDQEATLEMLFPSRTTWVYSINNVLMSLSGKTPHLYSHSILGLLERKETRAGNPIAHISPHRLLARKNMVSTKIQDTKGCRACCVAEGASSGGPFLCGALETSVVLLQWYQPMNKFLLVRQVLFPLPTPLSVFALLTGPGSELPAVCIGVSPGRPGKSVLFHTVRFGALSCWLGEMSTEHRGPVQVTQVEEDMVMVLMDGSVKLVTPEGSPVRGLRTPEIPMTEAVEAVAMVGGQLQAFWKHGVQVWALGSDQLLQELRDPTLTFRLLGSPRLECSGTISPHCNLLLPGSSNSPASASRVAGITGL
Cyclin-dependent kinase 5, sequence (Q00535 whole entry): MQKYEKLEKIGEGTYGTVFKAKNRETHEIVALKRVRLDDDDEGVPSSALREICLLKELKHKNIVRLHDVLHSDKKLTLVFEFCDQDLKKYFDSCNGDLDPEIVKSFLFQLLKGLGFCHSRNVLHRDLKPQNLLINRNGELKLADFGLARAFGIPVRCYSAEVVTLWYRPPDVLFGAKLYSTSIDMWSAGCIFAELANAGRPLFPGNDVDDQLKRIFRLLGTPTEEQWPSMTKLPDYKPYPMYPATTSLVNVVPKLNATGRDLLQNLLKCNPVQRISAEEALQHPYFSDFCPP

| Kd [1] | Kd [2] | Kd [3] | Kd [4] | Kd [5] | Kd [6] | Kd [7] | Kd [8] | Kd [9] | Kd [10] | Kd (Rab-like protein 3) | Kd [11] | Kd [12] | Kd (Myosin-14) | Kd [13] | Kd [14] | Kd [15] | Kd [16] | Kd [17] | Compound |
| --- | --- | --- | --- | --- | --- | --- | --- | --- | --- | --- | --- | --- | --- | --- | --- | --- | --- | --- | --- |
| > 30 µM (inactive) | > 30 µM (inactive) | > 30 µM (inactive) | > 30 µM (inactive) | > 30 µM (inactive) | > 30 µM (inactive) | > 30 µM (inactive) | > 30 µM (inactive) | > 30 µM (inactive) | > 30 µM (inactive) | > 30 µM (inactive) | > 30 µM (inactive) | > 30 µM (inactive) | > 30 µM (inactive) | > 30 µM (inactive) | > 30 µM (inactive) | > 30 µM (inactive) | > 30 µM (inactive) | > 30 µM (inactive) | FC(F)(F)c1ccc(/C=C/c2nc(COc3ccc(CCCCn4ccnn4)cc3)co2)cc1 [MUBRITINIB] |
| > 30 µM (inactive) | > 30 µM (inactive) | > 30 µM (inactive) | > 30 µM (inactive) | > 30 µM (inactive) | > 30 µM (inactive) | > 30 µM (inactive) | > 30 µM (inactive) | > 30 µM (inactive) | > 30 µM (inactive) | > 30 µM (inactive) | > 30 µM (inactive) | > 30 µM (inactive) | > 30 µM (inactive) | > 30 µM (inactive) | > 30 µM (inactive) | > 30 µM (inactive) | > 30 µM (inactive) | > 30 µM (inactive) | COc1ncc(-c2ccc3nccc(-c4ccnnc4)c3c2)cc1NS(=O)(=O)c1ccc(F)cc1F [OMIPALISIB] |
| > 30 µM (inactive) | > 30 µM (inactive) | > 30 µM (inactive) | > 30 µM (inactive) | > 30 µM (inactive) | > 30 µM (inactive) | > 30 µM (inactive) | > 30 µM (inactive) | > 30 µM (inactive) | > 30 µM (inactive) | > 30 µM (inactive) | > 30 µM (inactive) | > 30 µM (inactive) | > 30 µM (inactive) | > 30 µM (inactive) | > 30 µM (inactive) | > 30 µM (inactive) | > 30 µM (inactive) | > 30 µM (inactive) | N#CC1(c2ccc(NC(=O)c3cccnc3NCc3ccncc3)cc2)CCCC1 [RIVOCERANIB] |
| > 30 µM (inactive) | > 30 µM (inactive) | > 30 µM (inactive) | > 30 µM (inactive) | > 30 µM (inactive) | > 30 µM (inactive) | > 30 µM (inactive) | > 30 µM (inactive) | > 30 µM (inactive) | > 30 µM (inactive) | > 30 µM (inactive) | > 30 µM (inactive) | > 30 µM (inactive) | > 30 µM (inactive) | > 30 µM (inactive) | > 30 µM (inactive) | > 30 µM (inactive) | > 30 µM (inactive) | > 30 µM (inactive) | O=c1[nH]ccc2cc(OC3CCNCC3)ccc12 [SAR-407899 FREE BASE] |

More lines, now with the values behind:

| Compound | Kd [1] | Kd [2] | Kd [3] | Kd [4] | Kd [5] | Kd [6] | Kd [7] | Kd [8] | Kd [9] | Kd [10] | Kd (Rab-like protein 3) | Kd [11] | Kd [12] | Kd (Myosin-14) | Kd [13] | Kd [14] | Kd [15] | Kd [16] | Kd [17] |
| --- | --- | --- | --- | --- | --- | --- | --- | --- | --- | --- | --- | --- | --- | --- | --- | --- | --- | --- | --- |
| CCCCCCCCCCCCCCCCCCOP(=O)([O-])OC1CC[N+](C)(C)CC1 [PERIFOSINE] | > 30 µM (inactive) | > 30 µM (inactive) | > 30 µM (inactive) | > 30 µM (inactive) | > 30 µM (inactive) | > 30 µM (inactive) | > 30 µM (inactive) | > 30 µM (inactive) | > 30 µM (inactive) | > 30 µM (inactive) | > 30 µM (inactive) | > 30 µM (inactive) | > 30 µM (inactive) | > 30 µM (inactive) | > 30 µM (inactive) | > 30 µM (inactive) | > 30 µM (inactive) | > 30 µM (inactive) | > 30 µM (inactive) |
| Cc1cnc(NC(=O)Nc2cc(Br)c(C)cc2OC[C@@H]2CNCCO2)cn1 [RABUSERTIB] | > 30 µM (inactive) | > 30 µM (inactive) | > 30 µM (inactive) | > 30 µM (inactive) | > 30 µM (inactive) | > 30 µM (inactive) | > 30 µM (inactive) | > 30 µM (inactive) | > 30 µM (inactive) | > 30 µM (inactive) | > 30 µM (inactive) | > 30 µM (inactive) | > 30 µM (inactive) | > 30 µM (inactive) | > 30 µM (inactive) | > 30 µM (inactive) | > 30 µM (inactive) | > 30 µM (inactive) | > 30 µM (inactive) |
| CO[C@H]1C[C@@H]2CC[C@@H](C)[C@@](O)(O2)C(=O)C(=O)N2CCCC[C@H]2C(=O)O[C@H]([C@H](C)C[C@@H]2CC[C@@H](OP(C)(C)=O)[C@H](OC)C2)CC(=O)[C@H](C)/C=C(\C)[C@@H](O)[C@@H](OC)C(=O)[C@H](C)C[C@H](C)/C=C/C=C/C=C/1C [RIDAFOROLIMUS] | > 30 µM (inactive) | > 30 µM (inactive) | > 30 µM (inactive) | > 30 µM (inactive) | > 30 µM (inactive) | > 30 µM (inactive) | > 30 µM (inactive) | > 30 µM (inactive) | > 30 µM (inactive) | > 30 µM (inactive) | > 30 µM (inactive) | > 30 µM (inactive) | > 30 µM (inactive) | > 30 µM (inactive) | > 30 µM (inactive) | > 30 µM (inactive) | > 30 µM (inactive) | > 30 µM (inactive) | > 30 µM (inactive) |
| Cn1cc(-c2cnn3c(N)c(Br)c([C@@H]4CCCNC4)nc23)cn1 [SCH-900776] | > 30 µM (inactive) | > 30 µM (inactive) | 0.279 µM (active) | > 30 µM (inactive) | > 30 µM (inactive) | > 30 µM (inactive) | 2.9 µM | > 30 µM (inactive) | > 30 µM (inactive) | > 30 µM (inactive) | > 30 µM (inactive) | > 30 µM (inactive) | > 30 µM (inactive) | > 30 µM (inactive) | > 30 µM (inactive) | > 30 µM (inactive) | > 30 µM (inactive) | > 30 µM (inactive) | > 30 µM (inactive) |
| CO[C@H]1C[C@@H]2CC[C@@H](C)[C@@](O)(O2)C(=O)C(=O)N2CCCC[C@H]2C(=O)O[C@H]([C@H](C)C[C@@H]2CC[C@@H](OC(=O)C(C)(CO)CO)[C@H](OC)C2)CC(=O)[C@H](C)/C=C(\C)[C@@H](O)[C@@H](OC)C(=O)[C@H](C)C[C@H](C)/C=C/C=C/C=C/1C [TEMSIROLIMUS] | > 30 µM (inactive) | > 30 µM (inactive) | > 30 µM (inactive) | > 30 µM (inactive) | > 30 µM (inactive) | > 30 µM (inactive) | > 30 µM (inactive) | > 30 µM (inactive) | > 30 µM (inactive) | > 30 µM (inactive) | > 30 µM (inactive) | > 30 µM (inactive) | > 30 µM (inactive) | > 30 µM (inactive) | > 30 µM (inactive) | > 30 µM (inactive) | > 30 µM (inactive) | > 30 µM (inactive) | > 30 µM (inactive) |
